{"source": "patent US7951751B2", "about": "“Synergistic, crop plant-compatible herbicidal compositions comprising herbicides from the group of the benzoylpyrazoles” (Bayer Crop Science AG, priority 2005, dated 2011)", "key": {"STEME": {"tested_on": "STEME", "assay": "Herbicidal post-emergence action, greenhouse pot test, visual rating", "format": "in vivo", "conditions": "rated 3 to 4 weeks after treatment", "description": "(§1) Seeds of monocotyledonous and dicotyledonous weed and crop plants are place into sandy loam in wood fiber pots or in plastic pots, covered with soil and cultivated in a greenhouse, including during the vegetation period outdoors outside of the greenhouse, under good growth conditions. 2-3 weeks after sowing, the test plants are treated at the one- to three-leaf stage. The test compounds, formulated as wettable powders (WP) or liquid (EC) are, in various dosages with a water application rate of 300 I/ha (converted), with added wetting agent (0.2 to 0.3%), sprayed onto the plants and the surface of the soil. 3 to 4 weeks after the treatment of the test plants, the effect of the preparations is rated visually in comparison to untreated controls (herbicidal effect in percent (%): 100% effect=plants have died, 0% effect=like control plants).\nIf it is additionally to be tested as to whether safeners can improve the plant compatibility of test substances in the case of crop plants, the following options are used for applying the safener: • seeds of the crop plants are, before sowing, dressed with the safener substance (the amount of safener is stated in percent, based on the weight of the seed) • before the application of the test substances, the crop plants are sprayed with the safener at a certain application rate per hectare (usually 1 day before the application of the test substances) • the safener is applied together with the test substance as a tank mix (the amount of safener is stated in g/ha or as a ratio, based on the herbicide).\nBy comparing the effect of the test substances on crop plants without or with safener treatment, it is possible to assess the effect of the safener substance."}, "summer wheat": {"tested_on": "summer wheat", "assay": "Crop plant compatibility (damage) post-emergence, with and without safener", "format": "in vivo", "description": "as §1, with “plants). […]” for “plants).”"}}, "data": [{"smiles": "Cc1nn(C)c(O)c1C(=O)c1ccc(C(F)(F)F)cc1S(C)(=O)=O", "note": "[A]", "values": [{"measurement": "Activity against STEME", "setting": "STEME; 37.5 g of a.i./ha, 100% = plants have died", "value": 50, "unit": "%"}, {"measurement": "Damage of summer wheat", "setting": "summer wheat; 300 g of a.i./ha", "value": 15, "unit": "%"}]}, {"smiles": "N#Cc1cc(Br)c(O)c(Br)c1", "note": "[Component B1.2, bromoxynil]", "values": [{"measurement": "Activity against STEME", "setting": "STEME; 140 g of a.i./ha", "value": 70, "unit": "%"}, {"measurement": "Damage of summer wheat", "setting": "summer wheat; 1680 g of a.i./ha", "value": 25, "unit": "%"}]}, {"smiles": "O=C(Nc1ccc(F)cc1F)c1cccnc1Oc1cccc(C(F)(F)F)c1", "note": "[Component B4.1, diflufenican]", "values": [{"measurement": "Activity against STEME", "setting": "STEME; 75 g of a.i./ha", "value": 70, "unit": "%"}]}, {"smiles": "CCOC(=O)C1=NN(c2ccc(Cl)cc2Cl)C(C)(C(=O)OCC)C1", "note": "(stereo not drawn) [Component C1, mefenpyr-diethyl]", "values": [{"measurement": "Activity against STEME", "setting": "STEME; 9.4 g of a.i./ha", "value": 0, "unit": "%"}]}]}
